From patent publication US12173320B2, “Production of red blood cells and platelets from stem cells” (BOSTON MEDICAL CENTER CORPORATION, priority 2012, dated 2024)

Columns and labels:
iPSC-derived MEPs [1] = assay: Growth / expansion of MEP cultures (manual counts, trypan blue exclusion); type: cell-based, human
Protocol: Plots were gated first in FSC vs. SSC and then from that population for PI ‘ and PE Hoechst’. […] (B) Representative phase contrast images of MEP population+FICZ. (C) Growth curve of day 15 MEPs+/−[…] FICZ. Cells were counted manually using trypan blue exclusion. Graphical data and the associated statistics are the result of three independent experiments per group.
High passage iPSCs were plated onto matrigel coated 6-well plates in iPSC media conditioned on iMEFs for 24 hours and supplemented with 2 ng/ml Rho Kinase Inhibitor and 20 ng/ml bFGF. After two days, iPSC media was replaced with Mesoderm DO-1 media: RPMI (Invitrogen A1049101) supplemented with 5 ng/mlhBMP-4 (R&D 314-BP-010), 50 ng/ml hVEGF (R&D 293-VE-010), 25 ng/mlhWnt3a (R&D 287-TC-500) and 10% KOSR. At Day 2, Mesoderm DO-1 media was replaced with Mesoderm D2 media: RPMI supplemented with 5 ng/ml hBMP-4, 50 ng/mlhVEGF, 20 ng/ml bFGF and 10% KOSR. Mesoderm D3 media consisted of the following: StemPro 34 (Invitrogen 10639011), 5 ng/ml hBMP-4, 50 ng/mlhVEGF, and 20 ng/ml bFGF. Mesoderm media for days 4 and 5 consisted of: StemPro 34, 15 ng/mlhVEGF, and 5 ng/ml bFGF. Day 6 mesoderm media: 74% IMDM (Invitrogen 12330061), 24% Hams F12 (Mediatech 10-080-CV), 1% B27 supplement (Invitrogen 12587-010), 0.5% N2-supplement (Invitrogen 17502-048), 0.5% BSA (Sigma A3059), 50 ng/ml hVEGF, 100 ng/mlbFGF, 100 ng/ml hSCF (R&D 255-SC-010), 25 ng/ml hFlt3 Ligand (R&D 308-FKN-005). Day 7 media: 74% IMDM, 24% Hams F12, 1% B27 supplement, 0.5% N2-supplement, 0.5% BSA, 50 ng/ml hVEGF, 100 ng/ml bFGF, 100 ng/ml hSCF, 25 ng/ml hFlt3 Ligand, 50 ng/ml hTPO (Genentech G140BT), 10 ng/ml IL-6 (R&D 206-IL-010), 0.5 U/ml hEPOgen and 0.2 uM 6-formylindolo[3,2-b]carbazole (FICZ) (Santa Cruz SC300019). After Day 7, 0.5 ml of Day 7 media was added to the culture daily without aspirating the media from the previous day. All base media mixes included 2 mM L-Glutamine (Invitrogen 25030081), 4×10^-4M Monothioglycerol (Sigma M1753), 100 ug/ml Primocin, and 50 ug/ml Ascorbic Acid. Cells in suspension were collected and assayed at Days 10-13 or split for long-term culture.
(§1) 6-formylindolo[3,2-b]carbazole (FICZ), an AHR small molecule agonist, and CH223191, an AHR competitive inhibitor were used for these assays. CH223191 was added to mesoderm cultures at Day 6 at 5 μM (lx) and 2.504 (0.5×). 0.2 μM FICZ was added to cultures at Day 7 and media was added daily. DMSO was used as a vehicle control.

iPSC-derived MEPs [2] = assay: Live versus dead cell FACS (propidium iodide vs. Hoechst) of MEPs; type: cell-based, human
Protocol: as §1
Roughly 10^5 cells were collected, spun, and re-suspended in 0.5% BSA in PBS. Samples were incubated for 30 min at ambient temperature with human antibodies including CD41a-FITC (BD 555466), CD235-PE (BD 555570), CD71-FITC (BD 555536), washed and spun at 3300 rpm for 7 min, and re-suspended in 0.5% BSA in PBS with 1 ug/ml Propidium Iodide. Samples were run on a BD FACScalibur using Cellquest Pro software and analyzed via FloJo 8.7. For ploidy analysis, cells were treated with 1.5% NP-40 (Boston Bioproducts P-872) and 62.5 ug/ml Propidium Iodide in PBS immediately before FACScalibur interrogation. For murine bone marrow, samples were first incubated for 5 min at ambient temperature with murine conjugated antibody CD16/32 (BD 553142) before a 30 min incubation with c-Kit-PE (BD 553355), CD41a-FITC (BD 553848), Ter119-PE (BD 553673). For cell viability assays, 2-3×10 ^5 cells were collected, re-suspended in 8.8 ug/ml Hoecsht 33342 in PBS supplemented with 5% FBS. Samples were then incubated in the dark at 37° C. for 15 min, washed, and re-suspended in 1 ug/ml Propidium Iodide in 5% FBS. Samples were run on an LSR-II machine with FACSDiva software and analyzed via FloJo 8.7.
In order to determine whether FICZ-mediated transactivation of the AhR receptor was responsible for the exponential expansion of iPSC-derived MEPs, the previously described Hoecsht/Propidium Iodide apoptosis assay was performed using the known AhR inhibitor CH223191. As previously shown in FIG. 3, fewer cells stained with propidium iodide after FICZ treatment (e.g., 15.5% vs. 8.09%) (FIG. 5E). […] The efficacy of the CH223191 was confirmed by its ability to block CY1^31B1 induction as assayed by qRT-PCR (FIG. 5F).

[3] = test system: red cell-depleted bone marrow from C57BL/6 mice; assay: MEP production in murine bone marrow culture (FACS); type: cell-based, mouse; settings: 0.2 μM FICZ, 3 days, versus vehicle
Protocol: Representative FACS analysis dot plots of red cell depleted C57B6 bone marrow grown for 3 days in +/−0.2 μM FICZ. 1×10^5 cells were initially treated with CD16/32 Fc receptor block, followed by directly conjugated monoclonal antibodies for the designated markers.
Roughly 10^5 cells were collected, spun, and re-suspended in 0.5% BSA in PBS. Samples were incubated for 30 min at ambient temperature with human antibodies including CD41a-FITC (BD 555466), CD235-PE (BD 555570), CD71-FITC (BD 555536), washed and spun at 3300 rpm for 7 min, and re-suspended in 0.5% BSA in PBS with 1 ug/ml Propidium Iodide. Samples were run on a BD FACScalibur using Cellquest Pro software and analyzed via FloJo 8.7. For ploidy analysis, cells were treated with 1.5% NP-40 (Boston Bioproducts P-872) and 62.5 ug/ml Propidium Iodide in PBS immediately before FACScalibur interrogation. For murine bone marrow, samples were first incubated for 5 min at ambient temperature with murine conjugated antibody CD16/32 (BD 553142) before a 30 min incubation with c-Kit-PE (BD 553355), CD41a-FITC (BD 553848), Ter119-PE (BD 553673). For cell viability assays, 2-3×10 ^5 cells were collected, re-suspended in 8.8 ug/ml Hoecsht 33342 in PBS supplemented with 5% FBS. […] Samples were run on an LSR-II machine with FACSDiva software and analyzed via FloJo 8.7. […]

day 30 MEPs = assay: EDU incorporation proliferation assay; type: cell-based, human; settings: versus untreated cells
From the text: In a subsequent experiment, […] (EDU) incorporation in day 30 MEPs was used to compare proliferation of FICZ-treated MEPS and control untreated MEPs, EDU is a labeling chemical that intercolates into the DNA of a cell and allows for the explicit tracking of proliferation.

## O=Cc1c2c(cc3c1=Nc1ccccc1-3)=Nc1ccccc1-2 [FICZ, 6-formylindolo[3,2-b]carbazole]
iPSC-derived MEPs [1]; after addition of FICZ to cultures
  expansion of MEPs (cell number): from a few thousand to a billion cells in a few weeks
iPSC-derived MEPs [1]; day 15 MEPs +/-0.2 μm FICZ, 2 week growth period, versus untreated
  growth of MEPs: logarithmic expansion
iPSC-derived MEPs [1]; iPSC-derived MEPs under AhR agonism
  time cells could be cultured: > 120 days
iPSC-derived MEPs [2]; D13 MEPs, FICZ added at D7, untreated 15.5%
  cells stained with propidium iodide: 8.09%
iPSC-derived MEPs [2]; day 15 MEPs + FICZ
  population of live cells as delineated by FSC and SSC: 32.6%
iPSC-derived MEPs [2]; day 15 MEPs + FICZ, gated from FSC vs. SSC population
  live cells PI- Hoechst+: 97.7%
iPSC-derived MEPs [2]; day 30 MEPs, versus untreated control
  cell death by propidium iodide staining and Hoechst dye exclusion: significantly less cell death
[3]
  CD41+ Ter119+ MEPs in culture: distinct populations
Day 30 MEPs
  proliferation by EDU incorporation: far more proliferative than untreated cells
